The results in this text go back to ChEMBL document CHEMBL2021759, “Discovery of 4'-azido-2'-deoxy-2'-C-methyl cytidine and prodrugs thereof: a potent inhibitor of Hepatitis C virus replication” (Bioorg Med Chem Lett, 2012).

One data set has as its system Hepatitis C virus. Briefly: Antiviral activity against Hepatitis C virus infected in human HuH7-Rep cells assessed as inhibition of viral replication by luciferase reporter gene assay. In kind it is functional, organism-based, Hepacivirus hominis. The conditions noted are these: Huh-7. (In general: In a reporter assay the amount or activity of a reporter protein is the signal.)

Data set [1] is described as follows: Cytotoxicity against human HuH7 cells by CMV-luciferase reporter gene assay. In kind it is cell-based, Huh-7.
Data set [2] relates to Rattus norvegicus. As to the kind of experiment: AUCt in Sprague-Dawley rat assessed as 4'-azido-2'-deoxy-2'-methylcytidine level at 20 umol/kg, po. In kind it is ADME, organism-based, Plasma. The conditions noted are these: in vivo.
Data set [3] has as its system Rattus norvegicus. Briefly: AUC (0 to infinity) in Sprague-Dawley rat assessed as 4'-azido-2'-deoxy-2'-methylcytidine level at 20 umol/kg, po. In kind it is ADME, organism-based, Plasma. Further details: dose 20 umol/kg, route oral, time infinity. Conditions: in vivo.
Data set [4] concerns Rattus norvegicus. Briefly: Cmax in Sprague-Dawley rat assessed as 4'-azido-2'-deoxy-2'-methylcytidine level at 20 umol/kg, po. In kind it is ADME, organism-based. Further details: dose 20 umol/kg, route oral. Conditions: in vivo.
In data set [5] the test system is Rattus norvegicus. As to the kind of experiment: Tmax in Sprague-Dawley rat assessed as 4'-azido-2'-deoxy-2'-methylcytidine level at 20 umol/kg, po. The conditions noted are these: in vivo. In kind it is ADME, organism-based.
Data set [6] concerns Rattus norvegicus. Briefly: Apparent oral clearance in Sprague-Dawley rat assessed as 4'-azido-2'-deoxy-2'-methylcytidine level at 20 umol/kg, po. In kind it is ADME, organism-based. Conditions: in vivo.
Data set [7] relates to Rattus norvegicus. As to the kind of experiment: Oral bioavailability in Sprague-Dawley rat assessed as 4'-azido-2'-deoxy-2'-methylcytidine level at 20 umol/kg. In kind it is ADME, organism-based. The conditions noted are these: in vivo.
The nature of data set [8]: Cytotoxicity against human MT4 cells by LTR-luciferase reporter gene assay. In kind it is cell-based.
The nature of data set [9]: Intrinsic clearance in human liver microsomes. In kind it is ADME, Microsome. Conditions: read-out: CLH.
The nature of data set [10]: Apparent permeability across human Caco2 cells. The conditions noted are these: Caco-2. In kind it is ADME, cell-based. On the technique in general: Caco-2 cells form a polarised layer with tight junctions and transporters.
Data set [11] is described as follows: AUCt in Sprague-Dawley rat at 5 umol/kg, iv. In kind it is ADME, organism-based. Conditions: plasma.
Data set [12] in a line: AUCt in Sprague-Dawley rat at 20 umol/kg, po. In kind it is ADME, organism-based. The conditions noted are these: plasma.
A short description of data set [13]: AUC (0 to infinity) in Sprague-Dawley rat at 5 umol/kg, iv. The arrangement: dose 5 umol/kg, route intravenous, time infinity. In kind it is ADME, organism-based. The conditions noted are these: plasma.
Data set [14] is described as follows: AUC (0 to infinity) in Sprague-Dawley rat at 20 umol/kg, po. In kind it is ADME, organism-based. The conditions noted are these: plasma. The arrangement: dose 20 umol/kg, time infinity, route oral.
The nature of data set [15]: Cmax in Sprague-Dawley rat at 20 umol/kg, po. In kind it is ADME, organism-based. Further details: dose 20 umol/kg, route oral. Conditions: in vivo.
The nature of data set [16]: Tmax in Sprague-Dawley rat at 20 umol/kg, po. In kind it is ADME, organism-based. Conditions: in vivo.
Data set [17] can be described thus: Apparent oral clearance in Sprague-Dawley rat at 20 umol/kg, po. In kind it is ADME, organism-based. The conditions noted are these: in vivo.
Data set [18] is described as follows: Oral bioavailability in Sprague-Dawley rat at 20 umol/kg. Conditions: in vivo. In kind it is ADME, organism-based.
Data set [19] is described as follows: Intrinsic clearance in rat liver microsomes. In kind it is ADME, Microsome. Conditions: read-out: CLH. In general terms: Liver microsomes are vesicles of endoplasmic reticulum, rich in cytochrome P450 enzymes.

As usually defined, the EC50 is the midpoint of the concentration-response curve. By CC50 is commonly meant the concentration giving 50% cytotoxicity. A high value points to better tolerance by the cells. What is called AUC is concentration integrated over time. Broadly, the Cmax is the highest concentration seen after dosing. By Tmax is commonly meant the time at which the peak concentration occurs. The CL/F is the apparent clearance, not corrected for the fraction that reaches the circulation. As for `CC(C)[C@H](N)C(=O)O[C@H]1[C@@H](C)[C@H](n2ccc(N)nc2=O)O[C@@]1(CO)N=[N+]=[N-].O=C(O)C(F)(F)F`, the EC50 in the data set with Hepatitis C virus came out at 0.72 µM. The compound also displayed a CC50 in data set [1] of more than 100 µM. Also, the AUCt in the data set on Rattus norvegicus [2] turned out to be 3.66 µM·h. In addition, in the data set with Rattus norvegicus [3], the AUC was 4.06 µM·h. Besides, in the data set on Rattus norvegicus [4], the Cmax stood at 1140 nM. Also, the time to peak (Tmax) in the data set with Rattus norvegicus [5] is 1 h. The CL/F in the data set on Rattus norvegicus [6] came to 82.2 mL/min/kg. Also, in the data set with Rattus norvegicus [7], the F was determined as 20%.
What is called Papp is the rate of passage across a membrane or cell layer, normalised by area and donor concentration. The AUC(0-t) is the area under the concentration-time curve up to a stated or last time point. A high value points to more exposure. What is called AUC(0-inf) is the area under the concentration-time curve extrapolated to infinity. A low value points to less exposure. In general, bioavailability refers to the share of a dose that reaches the circulation, judged against a reference dose that is usually intravenous. Turning to `C[C@H]1[C@H](n2ccc(N)nc2=O)O[C@@](CO)(N=[N+]=[N-])[C@H]1O`, the EC50 in the data set on Hepatitis C virus came to 1.2 µM. For the same compound, the half-maximal cytotoxic concentration (CC50) in data set [1] and in [8] was more than 98 µM throughout. For the same compound, the microsomal CLint in data set [9] and in data set [19] was less than 6 µL/min/mg throughout. In addition, the Papp in [10] was determined as 1.7 ×10⁻⁶ cm/s. For the same compound, the AUC(0-t) worked out at 4.97 µM·h in data set [11] and 2.66 µM·h in [12]. Besides, the AUC(0-inf) in data set [13] stood at 4.98 µM·h; in data set [14] it was 2.87 µM·h. Besides, the Cmax in [15] worked out at 610 nM. Further, the Tmax in data set [16] stood at 2 h. In addition, the CL/F in data set [17] was 119 mL/min/kg. The bioavailability in data set [18] worked out at 14%.
With `CC(C)[C@H](N)C(=O)OC[C@@]1(N=[N+]=[N-])O[C@@H](n2ccc(N)nc2=O)[C@H](C)[C@@H]1O.O=C(O)C(F)(F)F`, the 50% effective concentration (EC50) in the data set on Hepatitis C virus turned out to be 0.79 µM. In [1], this compound gave a CC50 of more than 100 µM. Moreover, in the data set with Rattus norvegicus [2], the AUCt amounted to 1.56 µM·h. For the same compound, in the data set with Rattus norvegicus [3], the AUC is 1.68 µM·h. Further, the Cmax in the data set with Rattus norvegicus [4] amounted to 500 nM. Moreover, the Tmax in the data set with Rattus norvegicus [5] is 1 h. Moreover, the CL/F in the data set with Rattus norvegicus [6] worked out at 200 mL/min/kg. For the same compound, the F in the data set on Rattus norvegicus [7] amounted to 8%.
Take `C[C@H]1[C@H](n2ccc(N)nc2=O)O[C@@](COP(=O)(N[C@@H](C)C(=O)OCc2ccccc2)Oc2cccc3ccccc23)(N=[N+]=[N-])[C@H]1O` (stereo partly drawn): the EC50 in the data set with Hepatitis C virus was 3 µM. Besides, the figures for the CC50 in data set [1] and in data set [8] were more than 100 µM and more than 32 µM, respectively.
As for `CC(C)[C@H](N)C(=O)OC[C@@]1(N=[N+]=[N-])O[C@@H](n2ccc(N)nc2=O)[C@H](C)[C@@H]1OC(=O)[C@@H](N)C(C)C.O=C(O)C(F)(F)F`, the EC50 in the data set with Hepatitis C virus was determined as 1.9 µM. Also, in data set [1], the CC50 was more than 100 µM. In addition, the AUCt with Rattus norvegicus [2] was found to be 1.22 µM·h. The area under the curve (AUC) with Rattus norvegicus [3] was found to be 1.35 µM·h. For the same compound, the Cmax with Rattus norvegicus [4] worked out at 290 nM. For the same compound, the Tmax in the data set with Rattus norvegicus [5] was 1 h. Further, the CL/F with Rattus norvegicus [6] was 247 mL/min/kg. Also, in the data set on Rattus norvegicus [7], the F is listed as 7%.
The IC50 is the concentration needed to halve the response being measured. As for `C[C@H]1[C@H](n2ccc(=O)[nH]c2=O)O[C@@](CO)(N=[N+]=[N-])[C@H]1O`, in the data set on Hepatitis C virus, the IC50 was more than 50 µM. The CC50 in data set [1] and in data set [8] was more than 100 µM in each case.
For `C[C@H]1[C@H](n2ccc(=O)[nH]c2=O)O[C@@](COP(=O)(N[C@@H](C)C(=O)OCc2ccccc2)Oc2cccc3ccccc23)(N=[N+]=[N-])[C@H]1O` (stereo partly drawn), the 50% effective concentration (EC50) in the data set with Hepatitis C virus was determined as 6.2 µM. Besides, the figures for the CC50 in [1] and in [8] were more than 100 µM and 41 µM, respectively.
For `CC(C)C(=O)OC[C@@]1(N=[N+]=[N-])O[C@@H](n2ccc(N)nc2=O)[C@H](C)[C@@H]1OC(=O)C(C)C`, the EC50 with Hepatitis C virus worked out at 6.6 µM. The CC50 in [1] was more than 100 µM; in data set [8] it was more than 50 µM. In addition, the microsomal CLint in [9] is more than 300 µL/min/mg. Further, the Papp in [10] worked out at 7.7 ×10⁻⁶ cm/s. Further, the AUCt in the data set with Rattus norvegicus [2] was found to be 12.7 µM·h. Further, the AUC in the data set on Rattus norvegicus [3] worked out at 12.9 µM·h. The Cmax in the data set with Rattus norvegicus [4] amounted to 4650 nM. Also, the Tmax in the data set with Rattus norvegicus [5] turned out to be 1 h. Further, the CL/F in the data set on Rattus norvegicus [6] turned out to be 25.8 mL/min/kg. Further, the F in the data set on Rattus norvegicus [7] is 65%.
